# Laboratory results as given in ChEMBL document CHEMBL3137667, “[Drug-induced liver injury; fourteenth updated edition of the bibliographic database of liver injuries and related drugs]” (Gastroenterol Clin Biol, 2004).
# Experiments:
# [1] = Highest frequency of acute liver toxicity observed during clinical trials, expressed as a percentage. [column '% AIGUE' in source]; settings: human
# [2] = human, serum
# [3] = human
# [4] = human; remark: listed apart in the source
# [5] = human; remark: listed apart in the source
# [6] = human; remark: listed apart in the source
# [7] = human; remark: listed apart in the source
# [8] = human; remark: listed apart in the source
# [9] = human; remark: listed apart in the source
# [10] = human, serum; remark: listed apart in the source
# [11] = Highest frequency of moderate liver toxicity observed during clinical trials, expressed as a percentage. [column '% BIOL' in source]; settings: human
# [12] = human; remark: listed apart in the source
# [13] = human, serum, 4383 h
# [14] = human; remark: listed apart in the source
# [15] = Times to onset, minimal and maximal, observed in the indexed observations. [column 'DELAI' in source]; settings: human
# 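Throughout, for Hepatotoxicity (association with vascular disease): count of indexed literature references reporting vascular liver injury in humans, e.g. peliosis hepatitis, hepatic veno-occlusive disease or Budd-Chiari syndrome.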
# 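Throughout, for Hepatotoxicity (benign tumour): value is a count of indexed literature references citing a benign tumour confirmed by histopathology.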
# 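Throughout, for Hepatotoxicity (choleostasis): human cholestatic liver injury, shown by histopathology or by peak ALT or AST elevation over alkaline phosphatase ratio below 2, value counts indexed literature reports.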
# 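Throughout, for Hepatotoxicity (chronic liver disease): chronic liver injury confirmed by histopathology or persistently raised serum aminotransferase activity beyond 6 months, value given as the count of indexed literature references.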
# 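Throughout, for Hepatotoxicity (cirrhosis): value is a count of indexed literature references reporting cirrhosis confirmed by histopathology.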
# 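Throughout, for Hepatotoxicity (cytolytic): human cytolytic liver injury, shown by histopathology or by a ratio above 5 of peak ALT or AST elevation to alkaline phosphatase elevation, value counts indexed references.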
# 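Throughout, for Hepatotoxicity (granulomatous hepatitis): value is a count of indexed literature references reporting granulomatous liver disease confirmed by histopathology.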
# 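Throughout, for Hepatotoxicity (malignant tumour): malignant tumour confirmed by histopathology, value gives the count of indexed literature references reporting it.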
# 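Throughout, for Hepatotoxicity (severe hepatitis): human clinical data: severe hepatitis, meaning potentially life-threatening liver failure or clinically observed cases, the value counts how many indexed literature references report it.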
# 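Throughout, for Hepatotoxicity (steatosis): steatosis confirmed by histopathology, value is the count of indexed references.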
Compound,Hepatotoxicity (acute) [2],Hepatotoxicity (cirrhosis) [3],Hepatotoxicity (association with vascular disease) [4],Hepatotoxicity (malignant tumour) [6],Hepatotoxicity (benign tumour) [7],Hepatotoxicity (steatosis) [8],Hepatotoxicity (moderate) [10],Hepatotoxicity (chronic liver disease) [13],Hepatotoxicity (time to onset) [15],Hepatotoxicity (acute) [1] [%],Hepatotoxicity (severe hepatitis) [5],Hepatotoxicity (cytolytic) [9],Hepatotoxicity (moderate) [11] [%],Hepatotoxicity (granulomatous hepatitis) [12],Hepatotoxicity (choleostasis) [14],further results
OCCOCCN1CCN(C2=Nc3ccccc3Sc3ccccc32)CC1 [QUETIAPINE],1,0,0,0,0,0,3,0,1 week - 3 weeks,,,,,,,Hepatotoxicity (acute) ([1]; Liver): 1.9%; Hepatotoxicity (severe hepatitis) ([5]; Liver): 0; Hepatotoxicity (cytolytic) ([9]; Liver): 1; Hepatotoxicity (moderate) ([11]; Liver): 14.8%; Hepatotoxicity (granulomatous hepatitis) ([12]; Liver): 0; Hepatotoxicity (choleostasis) ([14]; Liver): 0
COc1cccc(OC)c1C(=O)N[C@@H]1C(=O)N2[C@@H]1SC(C)(C)[C@@H]2C(=O)O [METHICILLIN],0,0,0,0,0,0,1,0,3 days - 3 weeks,0,0,0,18.7,0,0,
CN(C)CCn1nnnc1SCC1=C(C(=O)O)N2C(=O)[C@@H](NC(=O)Cc3csc(N)n3)[C@H]2SC1 [CEFOTIAM],1,0,0,0,0,0,8,0,4 days,0.8,0,0,33,0,0,
OC[C@H]1O[C@@H](n2cnc3c2NC=NC[C@H]3O)C[C@@H]1O [PENTOSTATIN],1,0,0,0,0,1,16,0,1 day - 2 months,0,2,1,81.3,0,0,
N[C@@H](C(=O)N[C@@H]1C(=O)N2C(C(=O)O)=C(Cl)CS[C@H]12)c1ccccc1 [CEFACLOR ANHYDROUS],2,0,0,0,0,0,20,0,8 days,2.2,0,1,10.7,0,2,
O=C(O)CCNC(=O)c1ccc(/N=N/c2ccc(O)c(C(=O)O)c2)cc1 [BALSALAZIDE],1,0,0,0,0,0,0,0,8 days,0,0,0,0,0,1,
CCOC(=O)Nc1ccc2c(c1)N(C(=O)CCN1CCOCC1)c1ccccc1S2 [MORICIZINE],0,0,0,0,0,0,4,0,6 days,0,0,0,1.2,0,0,
CN(C)CCOc1ccc(/C(=C(/CCCl)c2ccccc2)c2ccccc2)cc1 [TOREMIFENE],2,0,0,0,0,1,4,0,3 months,6.1,0,0,8.3,0,1,
CCOC(=O)[C@H](CCc1ccccc1)N[C@H]1CCCN2CCC[C@@H](C(=O)O)N2C1=O [CILAZAPRIL],0,0,0,0,0,0,1,0,2 months,0,0,0,1.2,0,0,
Cc1ccc(-c2cc(C(F)(F)F)nn2-c2ccc(S(N)(=O)=O)cc2)cc1 [CELECOXIB],8,0,0,0,0,0,3,0,2 days - 3 weeks,,,,,,,Hepatotoxicity (acute) ([1]; Liver): 0%; Hepatotoxicity (severe hepatitis) ([5]; Liver): 0; Hepatotoxicity (cytolytic) ([9]; Liver): 5; Hepatotoxicity (moderate) ([11]; Liver): 2%; Hepatotoxicity (granulomatous hepatitis) ([12]; Liver): 0; Hepatotoxicity (choleostasis) ([14]; Liver): 4
COc1cc(C(=O)NCc2ccc(OCCN(C)C)cc2)cc(OC)c1OC [TRIMETHOBENZAMIDE],2,0,0,0,0,0,0,0,5 days,0,0,2,0,0,1,
